Read-outs that look alike come from different tables or passages of the source.

Consider 32 compounds from article PMC7504728, “Bioactivities of Lyngbyabellins from Cyanobacteria of Moorea and Okeania Genera” (Molecules, 2020).

In series [1] the test system is Amphibalanus amphitrite barnacle larvae. The experiment in a line: Antifouling (settlement inhibition) assay on A. amphitrite cyprids. The series is classed as in vivo. As to the method: As for all the compounds, the activity remained after 120 h of exposure.
The antifouling activity of the compounds was determined according to a procedure reported previously. Briefly, the newly developed cyprids of A. amphitrite were tested against several different concentrations of the isolated compounds (1–5) (0.03–10 μg/mL) in triplicate (n = 3). The assays were conducted using 24-well polystyrene culture plates, with each well containing 2 mL seawater and six cyprids. […] The total number of dead cyprids was counted after 120 h of exposure. Antifouling activity was expressed as an EC50 according to Probit analysis. CuSO4 was used as a positive control and 80% filtered (0.20 µm of pore filter) natural seawater (diluted with deionized water) as a negative control.

Series [2] relates to MCF7 breast cancer cells. The experiment in a line: Cytotoxicity MTT assay on MCF7 breast cancer cells. The series is classed as cell-based, human. Conditions: MTT after 72 h incubation; for IC50: 37 °C, read-out: IC50, cytotoxicity with respect to MCF7 breast cancer cells. As to the method:
The cytotoxicity of the compounds was determined according to a procedure reported previously. MCF7 breast cancer cells were maintained in RPMI-1640 medium with 10% fetal bovine serum (FBS). The cells were plated into 96-well plates with a density of 1.0 × 10^4 cells per well. After 24 h incubation, the cells were exposed to different concentrations of compounds, with cisplatin as a positive control and with 1% filtered ethanol as a negative control. The MTT assay was conducted after 72 h of incubation at 37 °C and 5% CO2.
A general note: Tetrazolium dyes change colour on reduction, which living cells bring about.

A further series deals with HT29, HeLA, MCF7. Conditions: range over HT29, HeLA, MCF7 value from current study; cited from earlier work. From the text: (§1) Table 2 Diversity of biological activities reported for Lyngbyabellins in the literature from 2000 to 2020. | column: IC50 (µM)
Series [3] deals with Plasmodium. As to conditions: antimalarial, cited from earlier work. From the text: Table 1 Structural diversity and antimalarial potential of secondary metabolites derived from cyanobacteria. | column: IC50 (µM)
In series [4] the test system is Plasmodium. Conditions: antimalarial; pLDH; cited from earlier work. From the text:
Table 1 Structural diversity and antimalarial potential of secondary metabolites derived from cyanobacteria. | column: IC50 (µM) || As part of an effort to identify antiplasmodial and antifouling metabolites, two cyanobacteria from two geographically distinct environments were studied: a Malaysian Moorea bouillonii and a Red Sea Okeania sp. Moorea and Okeania genera were delineated from the Lyngbya genus. As phylogenetically close genera, they produce similar compounds. In this study, the lyngbyabellin family depsipeptides were isolated from Moorea bouillonii and Okeania sp. These kinds of compounds were initially found in the sea hare Dolabella auricularia after being identified from cyanobacterial origins as p ...

For series [5], the system named is various cancer cell lines. Conditions: cited from earlier work. From the text: As part of an effort to identify antiplasmodial and antifouling metabolites, two cyanobacteria from two geographically distinct environments were studied: a Malaysian Moorea bouillonii and a Red Sea Okeania sp. Moorea and Okeania genera were delineated from the Lyngbya genus. As phylogenetically close genera, they produce similar compounds. In this study, the lyngbyabellin family depsipeptides were isolated from Moorea bouillonii and Okeania sp. These kinds of compounds were initially found in the sea hare Dolabella auricularia after being identified from cyanobacterial origins as p ...

The subject of another series is HT29, HeLA, CA46, PtK2. As to conditions: range over HT29, HeLA; cited from earlier work.
Source text: as §1

The next series deals with KB, LoVo. As to conditions: range over KB; cited from earlier work.
Source text: as §1

A further series relates to KB. As to conditions: cited from earlier work.
Source text: as §1

The subject of the next series is H460, Neuro-2a. Conditions: range over H460, Neuro-2a; cited from earlier work.
Source text: as §1

The next series deals with HT29, HeLA. As to conditions: range over HT29, HeLA; cited from earlier work.
Source text: as §1

A further series concerns H460. As to conditions: cited from earlier work.
Source text: as §1

For another series, the system named is H460, HCT116. Conditions: range over H460, HCT116; cited from earlier work.
Source text: as §1

The subject of series [6] is Plasmodium falciparum strain FCR-3. The experiment in a line: Antiplasmodial assay, Giemsa staining. The series is classed as cell-based. On the procedure: Compound 1 isolated from Okeania sp., and compounds 6 and 7 from M. bouillonii were tested against the malaria parasite (P. falciparum). […] The assay was repeated three times in the concentration range of 0.05–10 (μg/mL). It is noteworthy that the mechanisms of antiplasmodial compounds isolated from M. bouillonii impeding the growth of Plasmodium are still unclear. […] However, as 1 and 7 were reported as cytotoxic towards cancer cells, we hypothesized that they act in the same way on erythrocytes, which distorts the results of the antimalarial assay.
The Giemsa staining method previously described by Aydin-Schmidt was used to evaluate the ability of compounds to inhibit the malaria parasite. A synchronized culture of Plasmodium falciparum strain FCR-3, the late-ring stage, was used (parasitemia 2%) for this assay. A series of compound concentrations were applied in 96-well microplates and incubated for 72 h at 37 °C in a reduced oxygen atmosphere. Compounds 1, 6, and 7 were dissolved in DMSO and tested in triplicate at three separate times. Chloroquine was used as a positive control and cultured medium with 1% DMSO (final concentration of solvent in all compound tested) as a negative control. Each assay was conducted in triplicate (n = 3). After 72 h, the parasitic level was evaluated by Giemsa and light microscopy. The inhibition level of compounds against Plasmodium was calculated using the formula previously reported.

The test system of series [7] is P. falciparum (liver-stage). As to conditions: cited from earlier work.
Source text: as §1

For the next series, the system named is HT29, HeLA, KB, LoVo. Conditions: range over HT29, HeLA; cited from earlier work.
Source text: as §1

Series [8] concerns Amphibalanus amphitrite barnacle larvae. On the set-up: method as in PMID 29019684. As to conditions: A.amphitrite barnacle cypris; cited from earlier work.
Another series relates to H460, Neuro-2a, MCF7. Conditions: range over H460, Neuro-2a, cited from earlier work.
Source text: as §1

Series [9] has as its system MCF7 breast cancer cells. Conditions: cited from earlier work. From the text: These differences in cytotoxicity were attributed to the dissimilarities in their structures.
The mark [10] stands for this setting: A.amphitrite barnacle cypris, current study.
Setting [11] is: strain FCR-3, late-ring (intraerythrocytic) stage, parasitemia 2%, 72 h, 37 °C, 0.05–10 μg/mL, repeated three times, triplicate, read-out: IC50 against malaria parasite (P. falciparum).
The mark [12] stands for this setting: previous study, read-out: IC50, cytotoxicity with respect to MCF7 breast cancer cells.

With 27-deoxylyngbyabellin A [Compound 5], the concentration for a half-maximal effect (EC50) (as a rule, the concentration needed to bring the measured effect to its halfway point) in series [1] (setting [10]) was found to be 0.09 µg/mL. In addition, in [1] (current study), the “Toxicity to A.amphitrite barnacle cypris (remark in EC50 cell)” value is recorded as 0.09 (but toxic). Further, the Toxicity to larvae entry in series [1] (exposed to 1 µg/mL, dead cyprids counted after 120 h of exposure) is recorded as “almost all the larvae were dead”. The IC50 (in general, the concentration that inhibits the measured activity by half) was 310 nM in the series with MCF7 breast cancer cells [2] and 7.3 to 310 nM with HT29, HeLA, MCF7.
With `C/C1=C/C(=O)O[C@H](C(C)(C)C)CCC[C@H](O)CCC[C@H](O)CCC[C@H](O)CCC[C@@H](O)C[C@@H](O)C[C@H](O)CCC[C@@H](O)CCC[C@@H](O)C[C@@H](O)CCCCC1` [Bastimolide A], in the series on Plasmodium [3] (Sybr Green), the IC50 was 270 nM.
With `C/C1=C/C(=O)O[C@H](CCC[C@@H](O)CCC[C@@H](O)CCC[C@@H](O)CCC[C@H](O)C(C)(C)C)C[C@@H](O)C[C@H](O)CCC[C@@H](O)CCC[C@@H](O)C[C@@H](O)CCCCC1` [Bastimolide B], the IC50 in the series with Plasmodium [3] (Pico-Green) is 5700 nM.
On to Carmabin A, for which the IC50 in the series with Plasmodium [3] (Pico-Green) was 4300 nM.
Companeramide A: the IC50 in the series on Plasmodium [3] (Sybr Green) was 5700 nM.
Regarding Dolastatin 10, the IC50 in the series with Plasmodium [4] is 0.1 nM. Moreover, in series [5], the “Selectivity index against various cancer cell lines” value is reported as not above 1.
In the case of Dolastatin 15, the IC50 in the series with Plasmodium [4] was 2.4 nM.
For Dragomabin, the 50% inhibitory concentration (IC50) with Plasmodium [3] (Pico-Green) is 6000 nM.
Gallinamide A: the IC50 with Plasmodium [3] (Pico-Green) is 8400 nM.
In the case of Hoshinoamide A, the IC50 in the series with Plasmodium [4] was 5200 nM.
With Ikoamide, in the series on Plasmodium [4], the IC50 was 140 nM.
Turning to Kakeromamide B, the 50% inhibitory concentration (IC50) with Plasmodium [3] (Sybr Green) is 8900 nM.
For the compound Lyngbyabellin B, in the series on HT29, HeLA, CA46, PtK2, the concentration for half-maximal inhibition (IC50) was 100 to 1100 nM.
For the compound Lyngbyabellin C, the IC50 in the series on KB, LoVo was 2100 to 5300 nM.
Turning to Lyngbyabellin D, in the series with KB, the half-maximal inhibitory concentration (IC50) was 100 nM.
Turning to Lyngbyabellin E, the IC50 in the series with H460, Neuro-2a was 400 to 1200 nM.
For the compound Lyngbyabellin F, the IC50 in the series on H460, Neuro-2a is 1000 to 1800 nM.
Lyngbyabellin I: in the series on H460, Neuro-2a, the IC50 was 700 to 1000 nM.
Lyngbyabellin J: the concentration for half-maximal inhibition (IC50) in the series with HT29, HeLA was 41 to 54 nM.
Regarding Lyngbyabellin K, the “IC50 (µM)” value in the series on H460 is “Inactive”.
With Lyngbyabellin L, the “IC50 (µM)” value in the series with H460 is listed as “Inactive”.
As to Lyngbyabellin M, the “IC50 (µM)” value with H460 is “Inactive”.
As to Lyngbyabellin N, the IC50 in the series with H460, HCT116 is 4.8 to 1800 nM.
Consider Mabunamide, for which, in the series on Plasmodium [4], the IC50 is 1400 nM.
Consider Ulongamide A, for which the half-maximal inhibitory concentration (IC50) in the series with Plasmodium [3] (Sybr Green) was 990 nM.
Take Venturamide A: the IC50 in the series on Plasmodium [3] (Pico-Green) is 8200 nM.
For the compound homohydroxydolabellin [Compound 6], in the series on MCF7 breast cancer cells [2], the “Cytotoxicity towards MCF7 cells” value is more than 50 µg/mL and the “Cytotoxicity with respect to MCF7 breast cancer cells (in words)” value is reported as “non-cytotoxicity”. For the same compound, the 50% inhibitory concentration (IC50) in series [6] (setting [11]) is 6400 nM.
With lyngbyabellin A [Compound 7], the IC50 was 1.5 nM in the series with Plasmodium [3] (Sybr Green); 1.5 nM in series [7]; 21 to 345 nM in the series with HT29, HeLA, KB, LoVo; 300 nM in series [6] (P.falciparum (intraerythrocytic stage), current study, read-out: IC50).
On to lyngbyabellin G [Compound 1], for which the “EC50” value in series [8] is listed as 4.41 µg/mL. Also, the IC50 with H460, Neuro-2a, MCF7 is 2200 to 120000 nM; with MCF7 breast cancer cells [9] (setting [12]) it was 120000 nM; in series [6] (setting [11]) it was 1100 nM.
Take lyngbyabellin H [Compound 4]: the “Antifouling activity at 10 µg/mL” value in series [1] (10 µg/mL, 48 h exposure, triplicate (n = 3)) is “inactive”. Also, in series [1] (setting [10]), the “EC50(µg/mL)” value is reported as “Inactive”. Further, the 50% inhibitory concentration (IC50) with MCF7 breast cancer cells [2] was 70 nM; in the series with H460, Neuro-2a, MCF7 (MCF7 value from current study), 70 to 1400 nM.
For lyngbyabellin O [Compound 2], the “EC50” value in series [8] is on record as 0.24 µg/mL. Moreover, the “IC50 (µM)” value with MCF7 breast cancer cells [9] (MCF7) is recorded as “Inactive”. Moreover, the IC50 in the series with MCF7 breast cancer cells [9] (setting [12]) was more than 160000 nM.
With lyngbyabellin P [Compound 3], the “EC50” value in series [8] is on record as 0.62 µg/mL. Moreover, the IC50 in the series on MCF7 breast cancer cells [9] (MCF7, read-out: IC50) is 9000 nM.
